molecular target: hMAT2A (Homo sapiens (Human), UniProt P31153); assay: Phosphate Sensor Fluorescence Assay (MAT2A enzyme inhibition); format: biochemical; conditions: L-methionine 500 uM, ATP 500 uM, class symbols
Summary of the method: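 Recombinant MAT2A preincubated 15 min at room temperature with compound, then reacted 1 h at room temperature with 500 uM L-methionine and 500 uM ATP in Tris pH 7.5 buffer containing PNP/7-MEG.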

Sequence of hMAT2A (P31153 whole entry): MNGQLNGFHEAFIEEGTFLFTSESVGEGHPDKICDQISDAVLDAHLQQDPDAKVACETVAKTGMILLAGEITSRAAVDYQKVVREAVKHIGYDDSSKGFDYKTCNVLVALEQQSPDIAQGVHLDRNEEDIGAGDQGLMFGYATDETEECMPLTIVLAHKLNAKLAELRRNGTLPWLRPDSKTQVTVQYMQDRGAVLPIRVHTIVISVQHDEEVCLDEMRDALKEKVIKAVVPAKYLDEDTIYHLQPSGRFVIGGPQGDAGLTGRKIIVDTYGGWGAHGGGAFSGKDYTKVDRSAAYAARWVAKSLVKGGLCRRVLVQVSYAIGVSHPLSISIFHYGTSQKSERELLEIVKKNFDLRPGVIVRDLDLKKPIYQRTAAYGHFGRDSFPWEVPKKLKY

Row | Compound | IC50
1 | [2H]C([2H])([2H])Nc1nc(=O)n(-c2ccccc2)c2cc(C(F)(F)F)ccc12 [Example 369, 4-((methyl-d3)amino)-1-phenyl-7-(trifluoromethyl)quinazolin-2(1H)-one] | < 200 nM
2 | Nc1nc(=O)n(-c2ccccc2)c2cc(Cl)cc(Cl)c12 [Example 383, 4-amino-5,7-dichloro-1-phenyl-hydroquinazolin-2-one] | 500 to 1000 nM
3 | CNc1nc(=O)n(-c2ccc3nccn3c2)c2cc(Cl)ccc12 [Example 251, 7-chloro-1-(4-hydroimidazo[1,2-a]-pyridin-6-yl)-4-(methylamino)hydro-quinazolin-2-one] | 1000 to 10000 nM
4 | 4-(3,3-difluoropyrrolidin-1-yl)-7- chloro-1-phenylhydroquinazolin-2-one [Example 207] | < 200 nM
5 | O=c1nc(NCC(F)F)c2ccc(C(F)(F)F)cc2n1-c1ccccc1 [Example 119, 4-[(2,2-difluoroethyl)amino]-1-phenyl-7-(trifluoromethyl)hydroquinazolin-2-one] | < 200 nM
6 | CNc1nc(=O)n(-c2ccn[nH]2)c2cc(Cl)ccc12 [Example 214, 7-chloro-4-(methylamino)-1-pyrazol-5-ylhydroquinazolin-2-one] | < 200 nM
7 | O=c1[nH]c(=O)n(-c2ccccc2)c2cc(C(F)F)ccc12 [Example 166, 7-(difluoromethyl)-1-phenyl-1,3-dihydroquinazoline-2,4-dione] | 200 to 500 nM
8 | COc1nc(=O)n(-c2cccnc2C)c2cc(C(F)(F)F)ccc12 [Example 405] | < 200 nM
9 | O=c1nc(NCC2CC2)c2ccc(C(F)(F)F)nc2n1-c1ccccc1Cl [Example 246] | < 200 nM
10 | CN(Cc1ccncc1)c1nc(=O)n(-c2ccccc2)c2cc(Cl)ccc12 [Example 234, 7-chloro-4-[methyl(pyridin-4-ylmethyl)-amino]-1-phenylhydroquinazolin-2-one] | < 200 nM
11 | CNC(=O)c1cccc(-n2c(=O)nc(NC)c3ccc(Cl)cc32)c1 [Example 175] | < 200 nM
12 | O=c1nc(N[C@H]2C[C@](O)(C(F)(F)F)C2)c2ccc(C(F)(F)F)nc2n1-c1ccccc1Cl [Example 275, 4-{[(cis)-3-hydroxy-3-(trifluoromethyl)-cyclobutyl]amino}-1-(2-chlorophenyl)-7-(trifluoromethyl)pyrido[2,3-d]-pyrimidin-2(1H)-one] | 500 to 1000 nM
13 | CNc1nc(=O)n(-c2ccccc2OC)c2cc(Cl)ccc12 [Example 226, 7-chloro-1-(2-methoxyphenyl)-4-(methylamino)hydroquinazolin-2-one] | < 200 nM
14 | CNc1nc(=O)n(-c2cccnc2)c2nc(C(F)(F)F)ccc12 [Example 378, 4-(methylamino)-1-(pyridin-3-yl)-7-(trifluoromethyl)pyrido[2,3-d]pyrimidin-2(1H)-one] | < 200 nM
15 | COCCNc1nc(=O)n(-c2ccccc2Cl)c2nc(C(F)(F)F)ccc12 [Example 317, 1-(2-chlorophenyl)-4-[(2-methoxyethyl)-amino]-7-(trifluoromethyl)pyrido[2,3-d]-pyrimidin-2(1H)-one] | < 200 nM
16 | CNc1nc(=O)n(-c2ccccc2Br)c2cc(C3CC3)ccc12 [Example 351, 1-(2-bromophenyl)-7-cyclopropyl-4-(methylamino)hydroquinazolin-2-one] | < 200 nM
17 | O=c1nc(N[C@H]2C[C@@H]2F)c2ccc(OC(F)(F)F)cc2n1-c1ccccc1Cl [Example 418, 1-(2-chlorophenyl)-4-(((1S,2S)-2-fluorocyclopropyl)amino)-7-(trifluoro-methoxy)quinazolin-2(1H)-one] | < 200 nM

same assay, conditions: L-methionine 500 uM, ATP 500 uM, numeric bound

Row | Compound | IC50
18 | O=c1[nH]c(=O)n(-c2nccc(O)n2)c2cc(Cl)ccc12 [Example 210, 7-chloro-1-(4-hydroxypyrimidin-2-yl)-1,3-dihydroquinazoline-2,4-dione] | > 10000 nM
19 | CNc1nc(=O)n(-c2ccccc2)c2cc(Cl)cc(OC3CN(C(=O)OC(C)(C)C)C3)c12 [Example 132, tert-butyl 3-[7-chloro-4-(methylamino)-2-oxo-1-phenylhydroquinazolin-5-yl-oxy]azetidinecarboxylate] | > 10000 nM

Source: patent US11046691B1 (IDEAYA BIOSCIENCES, INC., priority 2018, dated 2021)
